# Measured values taken from patent US7214673B2, “Piperazine substituted aryl benzodiazepines and their use as dopamine receptor antagonists for the treatment of psychotic disorders” (Eli Lilly and Company, priority 2002, dated 2007).
# Counter-ions that a name gives are not always drawn.
row,melting point,Structure (SMILES)
1,198 °C (dec.),Cc1cc2c(s1)Nc1ccccc1N=C2N1CCN(C)[C@@H](CCc2ccoc2)C1.Cl.Cl
2,225 °C,Cc1cc2c(s1)Nc1ccccc1N=C2N1CCN(C)[C@@H](CCc2ccccc2)C1.Cl
3,209 °C (dec.),Cc1cc2c(s1)Nc1ccccc1N=C2N1CCN(C)[C@@H](CCc2ccc3ccccc3c2)C1 (as salt: hydrochloride)
4,230 °C,CN1CCN(C2=Nc3ccccc3Nc3sc(C(C)(C)C)cc32)C[C@@H]1CCc1ccccc1 (as salt: hydrochloride)
5,240 °C,Cc1nc2c(s1)Nc1ccccc1N=C2N1CCN(C)[C@@H](Cc2ccccc2)C1 (as salt: hydrochloride)
6,185 °C,COc1ccccc1C[C@H]1CN(C2=Nc3ccccc3Nc3sc(C)nc32)CCN1C (as salt: hydrochloride)
7,210 °C,CC(C)c1nc2c(s1)Nc1ccccc1N=C2N1CCN(C)[C@@H](CCc2ccccc2)C1 (as salt: hydrochloride)
8,190 °C,COc1ccc(CC[C@H]2CN(C3=Nc4ccccc4Nc4sc(C(C)C)nc43)CCN2C)cc1 (as salt: hydrochloride)
9,230 °C,Cc1nc2c(s1)Nc1ccccc1N=C2N1CCN(C)[C@@H](CCc2ccc(F)cc2)C1 (as salt: hydrochloride)
10,180 °C,CC(C)c1nc2c(s1)Nc1ccccc1N=C2N1CCN(C)[C@@H](CCc2cccc(F)c2)C1 (as salt: hydrochloride)
11,227 °C,CC(C)c1ccc2c(c1)C(N1CCN(C)[C@@H](CCc3cccc(F)c3)C1)=Nc1ccccc1N2 (as salt: hydrochloride)
12,214 to 217 °C (dec.),Cc1cc2c(s1)Nc1ccccc1N=C2N1CCN(C)[C@@H](CCc2ccncc2)C1 (as salt: hydrochloride) (hydrate or solvate)
13,226 to 229 °C (dec.),Cc1cc2c(s1)Nc1ccccc1N=C2N1CCN[C@@H](CCc2cccnc2)C1 (as salt: hydrochloride) (hydrate or solvate)
14,230 °C,"Cc1nc2c(s1)Nc1ccccc1N=C2N1CCN[C@@H](CCc2ccccc2)C1 (as salt: hydrochloride) (hydrate or solvate) [Example 460, (S)-2-Methyl-10-(3-phenethyl-piperazin-1-yl)-4H-3-thia-1,4,9-triaza-benzo[f]azulene dihydrochloride hemihydrate]"
15,220 °C,"Cc1nc2c(s1)Nc1ccccc1N=C2N1CCN(C)[C@@H](CCc2ccccc2)C1 (as salt: hydrochloride) (hydrate or solvate) [Example 461, (S)-2-Methyl-10-(4-methyl-3-phenethyl-piperazin-1-yl)-4H-3-thia-1,4,9-triaza-benzo[f]azulene dihydrochloride hemihydrate]"
16,210 °C,"CC(C)n1nc2c(n1)C(N1CCN[C@@H](CCc3ccccc3)C1)=Nc1ccccc1N2 (as salt: hydrochloride) (hydrate or solvate) [Example 594, (S)-2-Isopropyl-10-(3-phenethyl-piperazin-1-yl)-2,4-dihydro-1,2,3,4.9-pentaaza-benzo[f]azulene dihydrochloride hemihydrate]"
17,220 to 224 °C (dec.),Cc1cc2c(s1)Nc1ccccc1N=C2N1CCN[C@@H](CCc2ccccn2)C1 (as salt: hydrochloride) [Example 132]
18,236 °C (dec.),"Cc1cc2c(s1)Nc1ccccc1N=C2N1CCN[C@@H](CCc2ccc(F)cc2)C1 (as salt: hydrochloride) [Example 176, 10-((S)-3-(2-(4-Fluorophenyl)-ethyl)-piperazin-1-yl)-2-methyl-4H-3-thia-4,9-diaza-benzo[f]azulene dihydrochloride]"
19,211 °C (dec.),"Cc1cc2c(s1)Nc1ccccc1N=C2N1CCN[C@@H](CCc2cccc(F)c2)C1 (as salt: hydrochloride) [Example 177, 10-((S)-3-(2-(3-Fluoro-phenyl)-ethyl)-piperazin-1-yl))-2-methyl-4H-3-thia-4,9-diaza-benzo[f]azulene dihydrochloride]"
